According to article PMC3653948, “PDZ Domain-Mediated Interactions of G Protein-Coupled Receptors with Postsynaptic Density Protein 95: Quantitative Characterization of Interactions” (PLoS ONE, 2013):
Like-named read-outs stand apart in the source and are kept apart here. Peptide text beside a SMILES is read from it.

What was measured:
[1] = target: T1, PSD-95 PDZ2 (Homo sapiens, UniProt P78352); assay: FP competition assay, PSD-95 PDZ2 (probe Cy5-GluN2B); format: binding; conditions: read-out: K i PDZ2
T1 construct: PDZ2 (aa 155–249); made in house; host or cells: E. coli One Shot BL21 Star (DE3)
Method: (§4) FP measurements were performed in black, flat bottom 384-well NBS microplates (Corning) on a Synergy H4 microplatereader (BioTek Instruments) equipped with a 620/40 nm excitation filter, a 680/30 nm emission filter, and a 660 nm dichroic mirror. Polarization values were corrected with blank samples and samples with fluorescent probe alone. At least 10 data points were measured for each curve, and each data point was measured in triplicate. […] All FP measurements were performed in a buffer containing 10 mM HEPES pH 7.4, 150 mM NaCl, and 1% BSA and incubated at least 15 min at room temperature before reading. The signal was stable for more than an hour, showing that the reaction was at equilibrium.
(§5) For the competition binding curves, probe was mixed with a constant concentration of PDZ protein corresponding to the K d and a twofold dilution series of unlabeled peptide in a total volume of 30 µl. The baseline was determined using a sample containing only probe. The IC50 was determined by fitting to a 1∶1 binding model: Y = Ymax − Ymax × X/(X+IC50). The K i was calculated from the IC50 and from the K d for the interaction between the PDZ protein and the probe as described previously [38].

[2] = target: T2, PSD-95 PDZ3 (Homo sapiens, UniProt P78352); assay: FP competition assay, PSD-95 PDZ3 (probe Cy5-CRIPT); format: binding; conditions: read-out: K i PDZ3
T2 construct: made in house; host or cells: E. coli One Shot BL21 Star (DE3)
Method: We used a competition set-up, where a constant concentration of isolated PSD-95 PDZ domain and a labeled reference ligand was titrated with unlabeled peptides from the GPCR C-tail library, typically within a 1–512 µM concentration range, and the resulting curves were fitted to obtain the IC50, which was used to calculate the K i (Figure 1). Three Cy5-labeled peptides with well-documented interactions with PSD-95 were used as reference ligands for the competition assay: Cy5-KIF1Bα was used for PDZ1 [20], Cy5-GluN2B (formerly known as NR2B) was used for PDZ2 and PDZ1-2 [21], and Cy5-CRIPT was used for PDZ3 [22] (Table S1). Competition with unlabeled versions of the reference ligands was used to validate the FP assay by comparison with the literature (Table S2).
FP measurements were performed in black, flat bottom 384-well NBS microplates (Corning) on a Synergy H4 microplatereader (BioTek Instruments) equipped with a 620/40 nm excitation filter, a 680/30 nm emission filter, and a 660 nm dichroic mirror. Polarization values were corrected with blank samples and samples with fluorescent probe alone. At least 10 data points were measured for each curve, and each data point was measured in triplicate. 25 nM Cy5-labeled probe was used for each assay: Cy5-KIF1Bα for PDZ1, Cy5-GluN2B for PDZ2 and PDZ1-2, and Cy5-CRIPT for PDZ3. All FP measurements were performed in a buffer containing 10 mM HEPES pH 7.4, 150 mM NaCl, and 1% BSA and incubated at least 15 min at room temperature before reading. The signal was stable for more than an hour, showing that the reaction was at equilibrium.
Saturation binding curves were used to determine the functionality of the PDZ domains by comparison with literature values and to calculate K i values from competition curves. Saturation binding curves were performed by mixing probe with a twofold dilution series of PDZ protein in a total volume of 30 µl. The K d was determined by fitting to a 1∶1 binding model: Y = Ymax × X/(X+K d).
For the competition binding curves, probe was mixed with a constant concentration of PDZ protein corresponding to the K d and a twofold dilution series of unlabeled peptide in a total volume of 30 µl. The baseline was determined using a sample containing only probe. The IC50 was determined by fitting to a 1∶1 binding model: Y = Ymax − Ymax × X/(X+IC50). The K i was calculated from the IC50 and from the K d for the interaction between the PDZ protein and the probe as described previously.

[3] = target: T3, PSD-95 PDZ1 (Homo sapiens, UniProt P78352); assay: SPR steady-state binding to immobilized PSD-95 PDZ1
T3 construct: PSD-95 PDZ1 (aa 61–151); made in house; host or cells: E. coli One Shot BL21 Star (DE3)
From the text: (§1) To confirm the affinities measured by FP using an orthogonal method and to get information about the kinetics of the GPCR–PDZ interactions, we used SPR. This label-free, surface sensitive technique measures the binding of a ligand to an immobilized protein as a function of time based on refractive index changes.
(§2) For each of the PSD-95 PDZ domains, we determined the K d and the stability of the complexes for selected GPCR C-tail peptides. The residence time τ ( = 1/k d) was used as a convenient measure of the stability of the complexes. […] The K d determined from the steady-state responses of a range of C-tail peptide concentrations (Figure 2B and Table S4) correlated well with the K i values obtained by FP (Figure S1).
(§3) A Biacore X100 (GE Healthcare) SPR instrument equilibrated to 25.0°C and equipped with a Sensor Chip CM5 (for PDZ1 and PDZ2) or CM4 (for PDZ3) (GE Healthcare) was used for the SPR measurements. The running buffer was HBS-EP+ (10 mM HEPES pH 7.4, 150 mM NaCl, 3 mM EDTA, 0.05% Surfactant P-20 (GE Healthcare)).
PDZ domains were immobilized by amine coupling at a flow rate of 5 µl/min on a surface activated by a 7 min injection of a 1∶1 mixture of 0.4 M 1-ethyl-3-(3-dimethylaminopropyl) carbodiimide (EDC) and 0.1 M N-hydroxysuccinimide (NHS). The remaining active groups were deactivated by a 7 min injection of 1 M ethanolamine HCl pH 8.5. 750 RU PDZ1, 780 RU PDZ2, and 410 RU PDZ3 were immobilized.
GPCR C-tail peptide samples were injected in increasing concentrations for 1 min with 1 min dissociation time at 30 µl/min. Reproducibility was tested by injecting the 20 µM sample again after the highest concentration sample. The binding curves were corrected by subtraction of buffer blanks and the response from a reference surface that was activated with EDC and NHS and deactivated with ethanolamine like the surface with immobilized PDZ domain. For peptides with a cysteine, 1 mM dithiothreitol (DTT) was added to the samples. Steady-state response curves were plotted from the responses 10 s before injection end. The K d was determined by fitting steady-state response curves to a 1∶1 binding model with a linear component to corrrect for low affinity binding, probably resulting from the immobilization: Y = Ymax × X/(X+K d)+B × X.

[4] = target: T3, PSD-95 PDZ1; assay: FP competition assay, PSD-95 PDZ1 (probe Cy5-KIF1Bα); format: binding
Method: as §4, §5

[5] = target: T1, PSD-95 PDZ2; assay: SPR steady-state binding to immobilized PSD-95 PDZ2
From the text: as §1, §2
as §3, with “Healthcare)). […]” for “Healthcare)).”
GPCR C-tail peptide samples were injected in increasing concentrations for 1 min with 1 min dissociation time at 30 µl/min. […] The K d was determined by fitting steady-state response curves to a 1∶1 binding model with a linear component to corrrect for low affinity binding, probably resulting from the immobilization: Y = Ymax × X/(X+K d)+B × X.

[6] = 25 nM Cy5-KIF1Bα, 10 mM HEPES pH 7.4, 150 mM NaCl, 1% BSA, room temperature, mean Ki ± SEM from two or more independent experiments, read-out: K i PDZ1
[7] = 25 nM Cy5-KIF1Bα, 10 mM HEPES pH 7.4, 150 mM NaCl, 1% BSA, room temperature, at least 15 min, Ki ± fitting error, read-out: K i PDZ1
[8] = receptors binding to PDZ1 but not to PDZ2, read-out: K i PDZ1

Compound	Ki [1] [µM]	Ki [2] [µM]	Kd [3] [µM]	Ki [4, 6] [µM]	Kd [5] [µM]	Ki [4, 7] [µM]	Ki [4, 8] [µM]
CC[C@H](C)[C@H](NC(=O)[C@H](CCCNC(=N)N)NC(=O)[C@H](CCCNC(=N)N)NC(=O)[C@H](CC(=O)O)NC(=O)[C@H](CC(=O)O)NC(=O)[C@@H](N)Cc1ccc(O)cc1)C(=O)N1CCC[C@H]1C(=O)N[C@@H](CC(C)C)C(=O)N[C@H](C(=O)N[C@@H](CCCNC(=N)N)C(=O)N[C@H](C(=O)N[C@H](C(=O)N[C@H](C(=O)N[C@@H](Cc1ccccc1)C(=O)O)[C@@H](C)O)[C@@H](C)O)[C@@H](C)O)[C@@H](C)O [SSTR4 Human] (H-YDDRRIPLTRTTTF-OH)	450 ± 58	600 ± 67	–	–	–	750 ± 80	–
CC(C)[C@H](NC(=O)[C@H](CCC(N)=O)NC(=O)[C@H](CCCNC(=N)N)NC(=O)[C@H](CC(=O)O)NC(=O)[C@H](CC(=O)O)NC(=O)[C@@H](N)Cc1ccc(O)cc1)C(=O)N1CCC[C@H]1C(=O)N[C@@H](Cc1ccccc1)C(=O)N[C@H](C(=O)N[C@@H](CCCCN)C(=O)N[C@H](C(=O)N[C@H](C(=O)N[C@H](C(=O)N[C@@H](Cc1ccccc1)C(=O)O)[C@@H](C)O)[C@@H](C)O)[C@@H](C)O)[C@@H](C)O [SSTR4 Mouse] (H-YDDRQVPFTKTTTF-OH)	420 ± 52	> 1000	–	–	–	> 1000	–
CC(C)[C@H](NC(=O)[C@H](CC(N)=O)NC(=O)[C@@H](NC(=O)[C@H](C)NC(=O)[C@H](CCC(=O)O)NC(=O)[C@@H](NC(=O)[C@H](Cc1ccccc1)NC(=O)[C@H](CO)NC(=O)[C@H](CC(=O)O)NC(=O)[C@H](CC(N)=O)NC(=O)[C@H](CCCNC(=N)N)NC(=O)[C@H](CC(=O)O)NC(=O)[C@H](CC(=O)O)NC(=O)[C@@H](N)Cc1ccc(O)cc1)[C@@H](C)O)[C@@H](C)O)C(=O)O [Y2] (H-YDDRNDSFTEATNV-OH)	230 ± 14	> 1000	–	–	–	270 ± 22	–
CC(C)C[C@H](NC(=O)[C@@H](NC(=O)[C@H](CO)NC(=O)[C@H](CO)NC(=O)[C@H](CO)NC(=O)[C@H](CCC(N)=O)NC(=O)[C@H](CCCCN)NC(=O)[C@H](Cc1ccc(O)cc1)NC(=O)[C@H](CC(=O)O)NC(=O)[C@H](CCCNC(=N)N)NC(=O)[C@H](CCCNC(=N)N)NC(=O)[C@H](CC(=O)O)NC(=O)[C@@H](N)CC(=O)O)[C@@H](C)O)C(=O)O [mGlu1(a)] (H-DDRRDYKQSSSTL-OH)	> 1000	> 1000	–	–	–	–	> 600
CC[C@H](C)[C@H](NC(=O)[C@@H](NC(=O)[C@H](CC(C)C)NC(=O)[C@H](CC(N)=O)NC(=O)[C@H](CC(N)=O)NC(=O)[C@H](Cc1ccc(O)cc1)NC(=O)[C@H](CO)NC(=O)[C@@H](NC(=O)[C@H](Cc1ccc(O)cc1)NC(=O)[C@H](CCCCN)NC(=O)[C@H](CCCNC(=N)N)NC(=O)[C@H](CC(=O)O)NC(=O)[C@@H](N)CC(=O)O)C(C)C)C(C)C)C(=O)O [mGlu7(a)] (H-DDRKYVSYNNLVI-OH)	> 1000	> 1000	–	–	–	610 ± 51	> 600
CC(C)[C@H](NC(=O)[C@H](CCCCN)NC(=O)[C@H](CO)NC(=O)[C@H](CCC(=O)O)NC(=O)[C@H](CO)NC(=O)[C@H](C)NC(=O)[C@H](Cc1ccccc1)NC(=O)CNC(=O)[C@@H]1CCCN1C(=O)[C@H](CCCNC(=N)N)NC(=O)[C@H](CCCNC(=N)N)NC(=O)[C@H](CC(=O)O)NC(=O)[C@H](CC(=O)O)NC(=O)[C@@H](N)Cc1ccc(O)cc1)C(=O)O [β1AR] (H-YDDRRPGFASESKV-OH)	120 ± 20	360 ± 82	–	–	–	430 ± 47	–

Stronger by Ki [1], values ahead:

Ki [1] [µM]	Ki [2] [µM]	Kd [3] [µM]	Ki [4, 6] [µM]	Kd [5] [µM]	Ki [4, 7] [µM]	Ki [4, 8] [µM]	Compound
26 ± 0.4	370 ± 40	160 ± 12	100 ± 0.1	–	–	–	CC[C@H](C)[C@H](NC(=O)[C@H](CCCNC(=N)N)NC(=O)[C@H](CCC(=O)O)NC(=O)[C@H](CO)NC(=O)[C@@H](NC(=O)[C@@H](NC(=O)[C@H](CO)NC(=O)[C@H](CCCNC(=N)N)NC(=O)[C@H](CC(=O)O)NC(=O)[C@H](CC(=O)O)NC(=O)[C@@H](N)Cc1ccc(O)cc1)C(C)C)C(C)C)C(=O)N[C@@H](CO)C(=O)N[C@@H](CO)C(=O)N[C@H](C(=O)O)C(C)C [5-HTR2C] (H-YDDRSVVSERISSV-OH)
29 ± 1.9	790 ± 93	120 ± 3.8	63 ± 6.3	–	–	–	CC[C@H](C)[C@H](NC(=O)[C@H](CC(=O)O)NC(=O)[C@H](CCC(N)=O)NC(=O)[C@H](CCCNC(=N)N)NC(=O)[C@H](CC(=O)O)NC(=O)[C@H](CC(=O)O)NC(=O)[C@@H](N)Cc1ccc(O)cc1)C(=O)N[C@H](C(=O)N[C@@H](CC(=O)O)C(=O)N[C@@H](CC(C)C)C(=O)N[C@@H](CCC(N)=O)C(=O)N[C@H](C(=O)N[C@@H](CCC(=O)O)C(=O)N[C@H](C(=O)O)C(C)C)[C@@H](C)O)[C@@H](C)CC [BAI1] (H-YDDRQDIIDLQTEV-OH)
28 ± 2	200 ± 34	–	50 ± 3.2	76 ± 1.5	–	–	CC[C@H](C)[C@H](NC(=O)[C@H](CCCNC(=N)N)NC(=O)[C@H](CO)NC(=O)[C@@H](NC(=O)[C@H](CS)NC(=O)[C@@H](NC(=O)CNC(=O)[C@H](CCCNC(=N)N)NC(=O)[C@H](CC(=O)O)NC(=O)[C@H](CC(=O)O)NC(=O)[C@@H](N)Cc1ccc(O)cc1)[C@@H](C)O)[C@@H](C)O)C(=O)N[C@H](C(=O)N[C@H](C(=O)N[C@@H](CC(C)C)C(=O)O)[C@@H](C)O)[C@@H](C)O [SSTR1 Human] (H-YDDRGTCTSRITTL-OH)
90 ± 14	> 1000	270 ± 9.1	–	–	270 ± 35	–	CC[C@H](C)[C@H](NC(=O)[C@H](CCCNC(=N)N)NC(=O)[C@H](CO)NC(=O)[C@H](C)NC(=O)[C@H](CS)NC(=O)[C@@H](NC(=O)CNC(=O)[C@H](CCCNC(=N)N)NC(=O)[C@H](CC(=O)O)NC(=O)[C@H](CC(=O)O)NC(=O)[C@@H](N)Cc1ccc(O)cc1)[C@@H](C)O)C(=O)N[C@@H](CO)C(=O)N[C@H](C(=O)N[C@@H](CC(C)C)C(=O)O)[C@@H](C)O [SSTR1 Mouse] (H-YDDRGTCASRISTL-OH)
